Data reported in patent US20120157356A1, “Hydraulic fracturing with slick water from dry blends” (priority 2010, published 2012).

Test system: not listed separately
Assay: Flowability: drainage time through a wide-mouth funnel
Conditions: dry powder flowability
Text: Also, the powder must be flowable (low angle of repose), with the flow measured as the drainage time through a wide-mouth funnel.

| Structure (SMILES) | Time in Minutes (drainage time through a wide-mouth funnel) |
| --- | --- |
| N.N.O=S(=O)(O)OOS(=O)(=O)O [Ammonium Persulfate] | 0.2 min |
| [Cl-].[K+] [Potassium Chloride] | 0.05 min |

Test system: not listed separately
Assay: Apparent density by volume increase of a dispersion of known weight of solid in mineral oil
Assay type: physicochemical
Conditions: not given
Text: If batch mix operations (illustrated in FIG. 1) are used so that time of mixing is not critical, particle size of the components used in the blend can be as large as 18 mesh (1.0 mm). However, if the mixing is to be based on a continuous mix process (FIG. 2), timing becomes more critical, requiring that the polymeric components disperse and begin hydration prior to reaching the well head. In this case, the particle size of the components preferably is 40 mesh (0.420 mm) or smaller, but more preferably 80 mesh (0.177 mm) or smaller. Also, it is preferred that the particle size and the apparent density of all the components be about the same (to minimize segregation during shipping and storage). Apparent densities of selected commercial components, as measured by measuring volume increase of a dispersion of a known weight of solid in mineral oil, are shown in Table 2. A dry blend preferably will be formed of components for each function in a fracturing fluid having apparent densities and particle sizes matched to the best extent possible. Inert solids, such as fumed silica, may be combined with active ingredients to form solid particles having a preferred density.

| Structure (SMILES) | Apparent Density |
| --- | --- |
| CN1CSC(=S)N(C)C1 [Dazomet 99%] | 1.111 g/mL |
| O=S([O-])([O-])=S.[Na+].[Na+] [Sodium Thiosulfate] | 1.667 g/mL |

Test system: Rats
Assay: not given
Conditions: no unit in table, b36: normally expressed as mg per kilogram of body mass; cited from earlier work

| Structure (SMILES) | Acute Oral Effect LD50 Rats |
| --- | --- |
| C[N+](C)(C)CCO.[Cl-] [Choline Chloride] | 3,400 |
| CN1CSC(=S)N(C)C1 [Dazomet, tetrahydro-3,5-dimethyl-2H-1,3,5-thiadiazine-2-thione] | 519 |
| Cc1cc(O)cc(C)c1Cl [PCMX] | 3,830 |
| O=S([O-])O.[Na+] [Sodium Bisulfite] | 1,131 |
| O=C1O[C@H]([C@H](O)CO)C([O-])=C1O.[Na+] [Sodium Erythorbate] | 5,000 |
| O=S([O-])([O-])=S.[Na+].[Na+] [Sodium Thiosulfate] | 2,890 |
| C[N+](C)(C)C.[Cl-] [Tetramethylammonium Chloride] | 94 |
